Test results published in patent publication US4731451A, “N-((2-oxo-3(2H)benzothiazolyl)methyl)-2-chloroacetanilides” (Monsanto Company, priority 1980, dated 1988).

What was measured:
Type in all cases: in vivo
[1] = tested on: Lambsquarters; assay: Pre-emergent herbicidal activity (Table III)
Description: (§1) The pre-emergence tests are conducted as follows:
(§2) A good grade of top soil is placed in aluminum pans and compacted to a depth of three-eighths to one-half inch from the top of the pan. On the top of the soil is placed a predetermined number of seeds or vegetative propagules of various plant species. The soil required to level fill the pans after seeding or adding vegetative propagules is weighed into a pan. A known amount of the active ingredient applied in a solvent or as a wettable powder suspension and the soil are thoroughly mixed, and used as a cover layer for prepared pans. After treatment, the pans are moved into a greenhouse bench where they are watered from below as needed to give adequate moisture for germination and growth.
(§3) Approximately 2-3 weeks after seeding and treating, the plants are observed and the results recorded. The herbicidal rating is obtained by means of fixed scale based on the percent injury of each plant species. The ratings are defined as follows: […]
(§4) The compounds were further tested by utilizing the above procedure on the following plant species: […]

[2] = tested on: Smartweed; assay: Pre-emergent herbicidal activity (Table III)
Description: as §1, §2, §3, §4

[3] = tested on: Hemp Sesbania; assay: Pre-emergent herbicidal activity (Table III)
Description: as §1, §2, §3, §4

[4] = tested on: Sugarbeet; assay: Pre-emergent herbicidal activity (Table III)
Description: as §1, §2, §3, §4

[5] = tested on: Wild Buckwheat; assay: Pre-emergent herbicidal activity (Table III)
Description: as §1, §2, §3, §4

[6] = tested on: Sorghum; assay: Pre-emergent herbicidal activity (Table III)
Description: as §1, §2, §3, §4

[7] = tested on: Cocklebur; assay: Pre-emergent herbicidal activity (Table III)
Description: as §1, §2, §3, §4

[8] = tested on: Velvetleaf; assay: Pre-emergent herbicidal activity (Table III)
Description: as §1, §2, §3, §4

[9] = tested on: Panicum; assay: Pre-emergent herbicidal activity (Table III)
Description: as §1, §2, §3, §4

[10] = tested on: Wheat; assay: Pre-emergent herbicidal activity (Table III)
Description: as §1, §2, §3, §4

[11] = tested on: Barnyardgrass; assay: Pre-emergent herbicidal activity (Table III)
Description: as §1, §2, §3, §4

[12] = tested on: Morningglory; assay: Pre-emergent herbicidal activity (Table III)
Description: as §1, §2, §3, §4

[13] = tested on: Rice; assay: Pre-emergent herbicidal activity (Table III)
Description: as §1, §2, §3, §4

[14] = tested on: Downy Brome; assay: Pre-emergent herbicidal activity (Table III)
Description: as §1, §2, §3, §4

[15] = tested on: Crabgrass; assay: Pre-emergent herbicidal activity (Table III)
Description: as §1, §2, §3, §4

[16] = tested on: Soybean; assay: Pre-emergent herbicidal activity (Table III)
Description: as §1, §2, §3, §4

[17] = tested on: Lambsquarters; assay: Pre-emergent herbicidal activity (Table II); conditions: 2-3 weeks
How it was run: (§5)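 Active ingredient, in solvent or as wettable powder suspension, mixed into cover soil over seeds or propagules in pans; bottom-watered in greenhouse. Percent injury rated on a fixed scale about 2-3 weeks after seeding and treatment.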

[18] = tested on: Smartweed; assay: Pre-emergent herbicidal activity (Table II); conditions: 2-3 weeks
How it was run: as §5

[19] = tested on: Johnsongrass; assay: Pre-emergent herbicidal activity (Table II); conditions: 2-3 weeks
How it was run: as §5

[20] = tested on: Cocklebur; assay: Pre-emergent herbicidal activity (Table II); conditions: 2-3 weeks
How it was run: as §5

[21] = tested on: Velvetleaf; assay: Pre-emergent herbicidal activity (Table II); conditions: 2-3 weeks
How it was run: as §5

[22] = tested on: Canada Thistle; assay: Pre-emergent herbicidal activity (Table II); conditions: 2-3 weeks
How it was run: as §5

[23] = tested on: Barnyardgrass; assay: Pre-emergent herbicidal activity (Table II); conditions: 2-3 weeks
How it was run: as §5

[24] = tested on: Morningglory; assay: Pre-emergent herbicidal activity (Table II); conditions: 2-3 weeks
How it was run: as §5

[25] = tested on: Quackgrass; assay: Pre-emergent herbicidal activity (Table II); conditions: 2-3 weeks
How it was run: as §5

[26] = tested on: Downy Brome; assay: Pre-emergent herbicidal activity (Table II); conditions: 2-3 weeks
How it was run: as §5

[27] = tested on: Yellow Nutsedge; assay: Pre-emergent herbicidal activity (Table II); conditions: 2-3 weeks
How it was run: as §5

Measured: Herbicidal rating
Note: ranges in brackets are in %.

CC1=C(N(Cn2c(=O)sc3ccccc32)C(=O)CCl)CCCC1 [Example 10, N--[(2-oxo-3(2H)--benzothiazolyl)methyl]-N--(2-methyl-1-cyclohexen-1-yl)-2-chloro-amide]
3 (75-100): [1]; 5.6 kg/ha | [11]; 0.056 kg/ha | [11]; 0.28 kg/ha | [11]; 5.6 kg/ha | [13]; 5.6 kg/ha | [15]; 0.056 kg/ha | [15]; 0.28 kg/ha | [15]; 1.12 kg/ha | [15]; 5.6 kg/ha | [23]; 5.6 kg/ha | [23]; 11.2 kg/ha | [24]; 5.6 kg/ha | [25]; 5.6 kg/ha | [26]; 5.6 kg/ha | [26]; 11.2 kg/ha
2 (50-74): [2]; 5.6 kg/ha | [9]; 5.6 kg/ha | [11]; 1.12 kg/ha | [14]; 5.6 kg/ha
0 (0-24): [1]; 0.28 kg/ha | [2]; 0.056 kg/ha | [2]; 0.28 kg/ha | [3]; 0.056 kg/ha | [3]; 0.28 kg/ha | [3]; 1.12 kg/ha | [3]; 5.6 kg/ha | [4]; 0.056 kg/ha | [4]; 0.28 kg/ha | [4]; 1.12 kg/ha | [4]; 5.6 kg/ha | [5]; 0.056 kg/ha | [5]; 0.28 kg/ha | [5]; 1.12 kg/ha | [5]; 5.6 kg/ha | [6]; 0.056 kg/ha | [6]; 0.28 kg/ha | [6]; 1.12 kg/ha | [6]; 5.6 kg/ha | [7]; 0.056 kg/ha | [7]; 0.28 kg/ha | [7]; 1.12 kg/ha | [7]; 5.6 kg/ha | [8]; 0.056 kg/ha | [8]; 0.28 kg/ha | [8]; 1.12 kg/ha | [8]; 5.6 kg/ha | [9]; 0.056 kg/ha | [9]; 0.28 kg/ha | [9]; 1.12 kg/ha | [10]; 0.056 kg/ha | [10]; 0.28 kg/ha | [10]; 1.12 kg/ha | [12]; 0.056 kg/ha | [12]; 0.28 kg/ha | [12]; 1.12 kg/ha | [12]; 5.6 kg/ha | [13]; 0.056 kg/ha | [13]; 0.28 kg/ha | [13]; 1.12 kg/ha | [14]; 0.056 kg/ha | [14]; 0.28 kg/ha | [14]; 1.12 kg/ha | [16]; 0.056 kg/ha | [16]; 0.28 kg/ha | [16]; 1.12 kg/ha | [16]; 5.6 kg/ha | [17]; 5.6 kg/ha | [17]; 11.2 kg/ha | [18]; 5.6 kg/ha | [18]; 11.2 kg/ha | [19]; 5.6 kg/ha | [19]; 11.2 kg/ha | [20]; 5.6 kg/ha | [20]; 11.2 kg/ha | [21]; 5.6 kg/ha | [21]; 11.2 kg/ha | [22]; 5.6 kg/ha | [22]; 11.2 kg/ha | [25]; 11.2 kg/ha
1 (25-49): [1]; 0.056 kg/ha | [1]; 1.12 kg/ha | [2]; 1.12 kg/ha | [10]; 5.6 kg/ha | [24]; 11.2 kg/ha | [27]; 5.6 kg/ha | [27]; 11.2 kg/ha

N--[(2-oxo-3(2H)--benzothiazolyl)methyl]-N--(2-ethyl-6-methyl-1-cyclohexen-1-yl)-2-chloro-acetamide, mixed with its -N--[(2-oxo-3(2H)--benzothiazolyl)methyl]-N--(2-methyl-6-ethyl-1-cyclohexen-1-yl)-2-chloroacetamide [Example 4]
0 (0-24): [1]; 0.28 kg/ha | [2]; 0.28 kg/ha | [3]; 0.28 kg/ha | [3]; 1.12 kg/ha | [4]; 1.12 kg/ha | [5]; 0.28 kg/ha | [5]; 1.12 kg/ha | [5]; 5.6 kg/ha | [6]; 0.28 kg/ha | [6]; 1.12 kg/ha | [6]; 5.6 kg/ha | [7]; 1.12 kg/ha | [8]; 0.28 kg/ha | [8]; 1.12 kg/ha | [8]; 5.6 kg/ha | [9]; 0.28 kg/ha | [9]; 1.12 kg/ha | [10]; 0.28 kg/ha | [10]; 1.12 kg/ha | [10]; 5.6 kg/ha | [11]; 0.28 kg/ha | [12]; 1.12 kg/ha | [13]; 0.28 kg/ha | [13]; 1.12 kg/ha | [14]; 0.28 kg/ha | [14]; 1.12 kg/ha | [14]; 5.6 kg/ha | [16]; 0.28 kg/ha | [16]; 1.12 kg/ha | [16]; 5.6 kg/ha | [18]; 5.6 kg/ha | [18]; 11.2 kg/ha | [19]; 5.6 kg/ha | [20]; 5.6 kg/ha | [20]; 11.2 kg/ha | [21]; 5.6 kg/ha | [21]; 11.2 kg/ha | [24]; 5.6 kg/ha | [24]; 11.2 kg/ha | [25]; 5.6 kg/ha | [25]; 11.2 kg/ha | [27]; 5.6 kg/ha | [27]; 11.2 kg/ha
1 (25-49): [4]; 0.28 kg/ha | [4]; 5.6 kg/ha | [12]; 0.28 kg/ha | [12]; 5.6 kg/ha | [13]; 5.6 kg/ha | [17]; 5.6 kg/ha | [22]; 5.6 kg/ha | [26]; 5.6 kg/ha | [26]; 11.2 kg/ha
3 (75-100): [1]; 5.6 kg/ha | [2]; 1.12 kg/ha | [2]; 5.6 kg/ha | [3]; 5.6 kg/ha | [7]; 5.6 kg/ha | [11]; 1.12 kg/ha | [11]; 5.6 kg/ha | [15]; 1.12 kg/ha | [15]; 5.6 kg/ha | [17]; 11.2 kg/ha | [19]; 11.2 kg/ha | [23]; 5.6 kg/ha | [23]; 11.2 kg/ha
2 (50-74): [1]; 1.12 kg/ha | [9]; 5.6 kg/ha | [15]; 0.28 kg/ha | [22]; 11.2 kg/ha
